Experimental data taken from ChEMBL document CHEMBL4152347 (J Med Chem, 2018).
Converted amounts (≈) assume the structure as drawn.

Experiments:
[1] = Solubility of compound in fasted state simulated intestinal fluid at pH 6.5; type: physicochemical
[2] = Solubility of compound in fed state simulated intestinal fluid at pH 5; type: physicochemical
[3] = Protein binding in mouse serum at 53 nM after 1 hr by ultracentrifugation assay; type: ADME, cell-free; details: read-out: PB (converted)
[4] = Protein binding in rat serum at 53 nM after 1 hr by ultracentrifugation assay; type: ADME, cell-free; details: read-out: PB (converted)
[5] = Protein binding in dog serum at 53 nM after 1 hr by ultracentrifugation assay; type: ADME, cell-free, Canis lupus familiaris; details: read-out: PB (converted)
[6] = Protein binding in human serum at 53 nM after 1 hr by ultracentrifugation assay; type: ADME, cell-free; details: read-out: PB (converted)
[7] = Tmax in CD1 mouse at 5 mg/kg, po administered via gavage; type: ADME, organism-based; details: in vivo
[8] = Oral bioavailability in CD1 mouse at 5 mg/kg; type: ADME, organism-based; details: in vivo
[9] = Tmax in Sprague-Dawley rat at 5 mg/kg, po; type: ADME, organism-based; details: in vivo
[10] = AUC (0 to infinity) in Sprague-Dawley rat at 1 mg/kg, iv; type: ADME, organism-based; set-up: dose 1 mg/kg, time infinity, route intravenous; details: in vivo
[11] = AUC (0 to infinity) in Sprague-Dawley rat at 5 mg/kg, po; type: ADME, organism-based; set-up: dose 5 mg/kg, time infinity, route oral; details: in vivo
[12] = Total plasma clearance in Sprague-Dawley rat at 1 mg/kg, iv; type: ADME, organism-based
[13] = Volume of distribution at steady state in Sprague-Dawley rat at 1 mg/kg, iv; type: ADME, organism-based; details: in vivo, read-out: Vdss
[14] = AUC (0 to infinity) in Sprague-Dawley rat at 5 mg/kg, id; type: ADME, organism-based; set-up: dose 5 mg/kg, time infinity; details: in vivo
[15] = Tmax in Sprague-Dawley rat at 5 mg/kg, id; type: ADME, organism-based; details: in vivo
[16] = Cmax in Sprague-Dawley rat at 5 mg/kg, po treated with 10 mg/kg elacridar immediately after compound dosing; type: ADME, organism-based; set-up: dose 5 mg/kg, route oral; details: in vivo, with elacridar 10 mg/kg
[17] = Tmax in Sprague-Dawley rat at 5 mg/kg, po treated with 10 mg/kg elacridar immediately after compound dosing; type: ADME, organism-based; details: in vivo, with elacridar 10 mg/kg
[18] = Oral bioavailability in Sprague-Dawley rat at 5 mg/kg treated with 10 mg/kg elacridar immediately after compound dosing; type: ADME, organism-based; details: in vivo, with elacridar 10 mg/kg
[19] = Cmax in beagle dog at 5 mg/kg, po administered via gavage as solution; type: ADME, organism-based, Canis lupus familiaris; set-up: dose 5 mg/kg, route oral; details: in vivo
[20] = AUC (0 to infinity) in beagle dog at 5 mg/kg, po administered via gavage as solution; type: ADME, organism-based, Canis lupus familiaris; set-up: dose 5 mg/kg, route oral, time infinity; details: in vivo
Canis familiaris [21] = test: Half life in beagle dog at 1 mg/kg, iv; type: ADME, organism-based, Canis lupus familiaris; details: in vivo
[22] = Tmax in beagle dog at 5 mg/kg, po administered via gavage as microsuspension pre-treated with 6 ug/kg, im pentagastrin 15 to 30 mins before compound dosing; type: ADME, organism-based, Canis lupus familiaris; details: in vivo
[23] = AUC (0 to infinity) in beagle dog at 5 mg/kg, po administered via gavage as microsuspension pre-treated with 6 ug/kg, im pentagastrin 15 to 30 mins before compound dosing; type: ADME, organism-based, Canis lupus familiaris; details: in vivo
[24] = Oral bioavailability in beagle dog at 5 mg/kg administered via gavage as microsuspension pre-treated with 6 ug/kg, im pentagastrin 15 to 30 mins before compound dosing; type: ADME, organism-based, Canis lupus familiaris; details: in vivo
Canis familiaris [25] = test: Oral bioavailability in beagle dog at 5 mg/kg administered via gavage as microsuspension along with high fat meal; type: ADME, organism-based, Canis lupus familiaris; details: in vivo
[26] = Cmax in beagle dog at 5 mg/kg, po administered via gavage as microsuspension pre-treated with 40 mg famotidine in capsule form 1 hr before compound dosing; type: ADME, organism-based, Canis lupus familiaris; set-up: dose 5 mg/kg, route oral; details: in vivo
[27] = Tmax in beagle dog at 5 mg/kg, po administered via gavage as microsuspension pre-treated with 40 mg famotidine in capsule form 1 hr before compound dosing; type: ADME, organism-based, Canis lupus familiaris; details: in vivo
[28] = AUC (0 to infinity) in beagle dog at 5 mg/kg, po administered via gavage as microsuspension pre-treated with 40 mg famotidine in capsule form 1 hr before compound dosing; type: ADME, organism-based, Canis lupus familiaris; set-up: dose 5 mg/kg, time infinity, route oral; details: in vivo
[29] = AUC (0 to infinity) in cynomolgus monkey at 5 mg/kg, po administered via gavage; type: ADME, organism-based, Macaca fascicularis; set-up: dose 5 mg/kg, route oral, time infinity; details: in vivo
[30] = Cmax in MDR1 a/b knockout mouse at 5 mg/kg, po administered via gavage; type: ADME, organism-based; set-up: dose 5 mg/kg, route oral; details: in vivo
[31] = Tmax in MDR1 a/b knockout mouse at 5 mg/kg, po administered via gavage; type: ADME, organism-based; details: in vivo
[32] = AUC (0 to infinity) in MDR1 a/b knockout mouse at 5 mg/kg, po administered via gavage; type: ADME, organism-based; set-up: dose 5 mg/kg, time infinity, route oral; details: in vivo
[33] = Oral bioavailability in MDR1 a/b knockout mouse at 5 mg/kg administered via gavage; type: ADME, organism-based; details: in vivo
[34] = Half life in mouse liver microsomes at 0.5 uM after 1 hr in presence of NADPH by LC-MS/MS analysis; type: ADME, microsome
[35] = Half life in dog liver microsomes at 0.5 uM after 1 hr in presence of NADPH by LC-MS/MS analysis; type: ADME, Canis lupus familiaris, microsome
[36] = Half life in mouse hepatocytes at 0.5 uM after 1 hr in presence of NADPH by LC-MS/MS analysis; type: ADME, cell-based, Hepatocyte
[37] = Half life in rat hepatocytes at 0.5 uM after 1 hr in presence of NADPH by LC-MS/MS analysis; type: ADME, cell-based, Hepatocyte
[38] = Half life in dog hepatocytes at 0.5 uM after 1 hr in presence of NADPH by LC-MS/MS analysis; type: ADME, cell-based, Canis lupus familiaris, Hepatocyte
[39] = Stability of the compound in human plasma at 1 uM after 2 hrs by LC-MS/MS analysis; type: ADME, cell-free
[40] = Stability of the compound in human liver microsomes in presence of […]; type: ADME, microsome
Cytochrome P450 3A4 = Cytochrome P450 3A4 (Homo sapiens, UniProt P08684); test: Drug metabolism assessed as recombinant CYP3A4 (unknown origin)-mediated oxidative metabolism; type: ADME; details: recombinant enzyme
[41] = biological target: Human immunodeficiency virus type 1 Gag protein (Human immunodeficiency virus 1, UniProt Q77YG1)
Description: Binding affinity to wild type HIV1 gag polyprotein containing viral like particle

Gag-Pol polyprotein [42] = biological target: Gag-Pol polyprotein (Human immunodeficiency virus type 1 group M subtype B (isolate HXB2)(HIV-1), UniProt P04585, V370A)
Gag-Pol polyprotein [43] = biological target: Gag-Pol polyprotein (Human immunodeficiency virus type 1 group M subtype B (isolate HXB2)(HIV-1), UniProt P04585)
Description: Binding affinity to HIV1 gag polyprotein delta V370 mutant containing viral like particle

[44] = biological target: Human immunodeficiency virus type 1 Gag protein (Human immunodeficiency virus 1) (UniProt Q77YG1)
Description: Binding affinity to wild type HIV1 gag polyprotein containing viral like particle assessed as dissociation half life

[45] = tested on: Gag-Pol polyprotein (Human immunodeficiency virus type 1 group M subtype B (isolate HXB2)(HIV-1)), P04585 [V370A]; details: Human immunodeficiency virus 1
[46] = biological target: Gag-Pol polyprotein (Human immunodeficiency virus type 1 group M subtype B (isolate HXB2)(HIV-1)) (UniProt P04585); details: Human immunodeficiency virus 1
Description: Binding affinity to HIV1 gag polyprotein delta V370 mutant containing viral like particle assessed as dissociation half life

in vivo = details: Sprague-Dawley, rat, po, 5 mg/kg
in vitro = details: human, MT2 cells
Description: Cytotoxicity against human MT2 cells assessed as reduction in cell viability

physchem = details: aqueous
Description: Aqueous solubility of the compound

Cytochrome P450 3A4, sequence (P08684 whole entry): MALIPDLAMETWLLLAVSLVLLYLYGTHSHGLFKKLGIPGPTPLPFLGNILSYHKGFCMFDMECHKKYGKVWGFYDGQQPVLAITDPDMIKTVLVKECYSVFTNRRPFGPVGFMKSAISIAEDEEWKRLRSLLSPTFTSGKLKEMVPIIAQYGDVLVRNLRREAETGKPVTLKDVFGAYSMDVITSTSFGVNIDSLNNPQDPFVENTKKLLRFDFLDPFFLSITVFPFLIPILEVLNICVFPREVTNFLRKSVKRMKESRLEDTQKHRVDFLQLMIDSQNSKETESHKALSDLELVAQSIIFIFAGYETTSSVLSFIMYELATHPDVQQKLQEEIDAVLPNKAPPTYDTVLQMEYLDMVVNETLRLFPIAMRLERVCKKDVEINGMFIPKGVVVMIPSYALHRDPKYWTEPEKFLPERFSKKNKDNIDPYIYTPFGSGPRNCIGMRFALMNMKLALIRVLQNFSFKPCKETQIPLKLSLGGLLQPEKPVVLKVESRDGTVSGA

`C=C(C)[C@@H]1CC[C@]2(NCCN3CCS(=O)(=O)CC3)CC[C@]3(C)[C@H](CC[C@@H]4[C@@]5(C)CC=C(c6ccc(C(=O)O)cc6)C(C)(C)[C@@H]5CC[C@]43C)[C@@H]12` [BMS-955176] gave a solubility [1] of 280 µg/mL (≈ 405 µM), a solubility [2] of 1020 µg/mL (≈ 1480 µM) and a fraction unbound at 1 h, 0.053 µM [3] of 0.106. It also gave a fraction unbound at 1 h, 0.053 µM [4] of 0.141, a fraction unbound at 1 h, 0.053 µM [5] of 0.154 and a fraction unbound at 1 h, 0.053 µM [6] of 0.139. It also gave a Tmax [7] of 3 h, a bioavailability [8] of 26.8% and a Tmax [9] of 6 h. For the same molecule, the AUC(0-inf) [10] was 11.1 µM·h, the AUC(0-inf) [11] was 14.2 µM·h and the clearance [12] was 2.2 mL/min/kg. For the same molecule, the Vd [13] was 1.1 L/kg, the AUC(0-inf) [14] was 19.9 µM·h and the Tmax [15] was 1 h. The Cmax [16] was 1800 nM, the Tmax [17] was 7.3 h and the bioavailability [18] was 63%. It also gave a Cmax [19] of 560 nM, an AUC(0-inf) [20] of 29.4 µM·h and a t1/2 (Canis familiaris [21]) of 7.8 min. For the same molecule, the Tmax [22] was 10.5 h, the AUC(0-inf) [23] was 276 µM·h and the bioavailability [24] was 26%. The F (Canis familiaris [25]) was 67%, the Cmax [26] was 4040 nM and the Tmax [27] was 13.5 h. For the same molecule, the AUC(0-inf) [28] was 236 µM·h, the AUC(0-inf) [29] was 1 µM·h and the Cmax [30] was 4020 nM. It also gave a Tmax [31] of 3 h, an AUC(0-inf) [32] of 65.5 µM·h and a bioavailability [33] of 45%. The half-life at 0.5 µM [34] was over 2 h, the half-life at 0.5 µM [35] was over 2 h and the half-life at 0.5 µM [36] was over 2 h. The half-life at 0.5 µM [37] was over 2 h, the half-life at 0.5 µM [38] was over 2 h and the Stability [39] was “Stable”. The Stability [40] was “Stable”, the Drug metabolism (Cytochrome P450 3A4) was “Metabolite_Detected” and the Kd [41] was 3.2 nM. The Kd (Gag-Pol polyprotein [42]) was 6.5 nM, the Kd (Gag-Pol polyprotein [43]) was 33.6 nM and the T1/2 [44] was 0.683 h. It also gave a T1/2 [45] of 0.6 h, a T1/2 [46] of 0.767 h and an AUC(0-t) at 24 h (in vivo) of 14.2 µM·h. It also gave a CC50 (in vitro) of 9200 nM and a solubility (physchem) of under 1 µg/mL.
